Experiments:
[1] = system: HIV-1 (CEM lymphocyte cells); assay: Inhibition of HIV-1 infection of CEM lymphocytes; format: cell-based; conditions: for HIV-1 infection level, HIV-P24 antigen: 7 days post infection, control 0.52; for Cell counts: virus pre-treated 3 hours, infected control 1.06×10^6
Description: Peptides: Peptides [either peptides derived from natural casein or synthetic peptides derived from casein (2-26 amino acids in length, see table 3)] supplied as lyophilized powder were resuspended in RPMI complete medium and added to cell cultures at a final concentrations of 50 to 1000 μg per ml.
Cells: Several types of freshly isolated human cells (primary cells) and cell lines are known to be susceptible to in vitro HIV-1 infection, although essentially any cell displaying even low surface levels of the CD4 molecule can be considered a potential target for HIV-1 infection. Two commonly used human cell lines which are highly sensitive for HIV-1 infection were chosen, CEM and Sup-T1.
CEM is a human T4-lymphoblastoid cell line initially derived by G. E. Foley et al. [(1965), Cancer 18:522] from peripheral blood buffy coat of a person with acute lymphoblastic leukemia. These cells were continuously maintained in suspension in medium, and have been used widely for analysis of infectivity, antiviral agents and neutralizing antibodies.
Virus: The HIV virus strain employed was HIV-1IIIB, originally designated HTLV-IIIB. Concentrated culture fluids of peripheral blood from several patients with AIDS or related diseases were used to establish a permanent productive infection in H-9 cells. This subtype B virus has high capacity to replicate in human T-cell lines. Viral titer was 5.38 ng per ml in stock solution.
HIV-1 P^24 antigen capture assay: An HIV-1 P^24 Antigen capture assay kit employed was designed to quantitate the HIV-1 P^24 core antigen, which is proportionally related to the degree of viral production in cells. This kit was purchased from the AIDS Vaccine program of the SAIC-NCI-Frederick Cancer Research Institute, P.O. Box B, Frederick, Md. 21702, USA and included 96 well plates coated with monoclonal antibody to HIV-1 P^24, primary antibody-rabbit anti-HIV P^24 serum, secondary antibody-Goat anti-rabbit-IgG (H+L) peroxidase conjugated antibody, TMB peroxidase substrate system and lysed HIV-1 P^24 standard. The HIV-1 P^24 antigen capture assay was analyzed by Organon-Technica ELISA reader at 450 nm with a reference at 650 nm.
HIV-1 P^24 antigen capture ELISA: HIV infection was measured with an indirect enzyme immunoassay which detects HIV-1 P^24 core antigens in tissue culture media. Tissue culture supernatant was reacted with primary rabbit anti-HIV-1 P^24 antigen and visualized by peroxidase conjugated goat anti rabbit IgG. The reaction was terminated by adding 4N H2SO4, wherein the intensity of the color developed is proportional to the amount of HIV-1 antigen present in the tissue culture supernatant.
HIV infection of human cultured CD4 cells: For longer incubations, the cells (CEM, Sup-T1) were preincubated with several increasing concentrations of peptides derived from natural casein (50-1000 μg per ml) or synthetic peptides derived from casein (10-500 μg per ml) for 24 (for synthetic and natural peptides) and 48 (only for natural peptides) hours and HIV-1IIIB (45 pg per ml final concentration) was added to each well thereafter. For the shorter incubations (3 hours), HIV-1IIIB was preincubated with the peptides for 3 hours and then added to cells (5000 cells/well) in tissue culture plates. Controls were IF (Infected, cells cultured with HIV-1 and without peptides), UIF (Uninfected, cells cultured without HIV-1 and without peptides) and UIF +Ch (Uninfected+peptides derived from natural casein, cells cultured in the presence of peptides derived from natural casein {50-1000 μg per ml}) to test the effect of peptides derived from natural casein and synthetic peptides derived from casein on cell viability and growth. Cells were counted for viability and proliferation rate on day 7, 10 and day 14 post infection (the day of P^24 antigen culture supernatant harvest). Cells and tissue culture supernatants (media) were harvested and lysed immediately in 1/10 volume of 10% Triton X-100. […]

[2] = system: female C57B⅙j mice fed an atherogenic diet; assay: Diet-induced hypercholesterol/hyperlipidemia in mice; format: in vivo; conditions: one week post 1 mg i.p.; for HDL: diet control 54.5; for LDL: diet control 326; for Total cholesterol (TC): diet control 393
Description: The ability of synthetic casein derived peptides to reduce cholesterol levels in 7-week old female C57B⅙j mice was assessed after feeding an atherogenic diet. The mice were divided into groups of 8. One control group was fed a normal diet. A second control group was fed the modified Thomas Hartroft diet containing cholate (#TD 88051: Teklad, Madison, Wis.) [Gerber, D. W. et al., Journal of Lipid Research. 42, 2001]. The remaining experimental groups were all fed the modified Thomas Hartroft diet.
Cholestrol blood levels were determined according to Roche Cholesterol Assay based on Roeschlou & Allin enzymatic method (Roche, Inc., Germany).

[3] = system: Non-Obese Diabetic (NOD) mice; assay: Glucosuria in Non-Obese Diabetic (NOD) mice; format: in vivo; conditions: for Healthy/Total (sugar not detected in urine): female NOD mice, 100 μg synthetic peptide once weekly for 5 weeks, evaluated after 25 weeks; for Urine Sugar: individual healthy NOD mice, after 25 weeks; for prevention of glucosuria (in words): 100 μg once weekly for 5 weeks, 25 weeks
Description: Juvenile (Type I, IDDM) diabetes in Non-Obese Diabetic (NOD) mice:
Peptides derived from natural casein: NOD mice are a commonly used model for research of autoimmune disease and human Juvenile Diabetes. Six week old female NOD mice received either one or two injections per week of 100 μg of peptides derived from natural casein, for a total of 5 or 10 treatments. Control mice received no treatment. The severity of disease was determined according to glucosuria, which was measured using Combi test sticks [Gross, D. J. et al (1994), Diabetology, 37:1195]. Results were expressed as the percent of glucosuria-free mice in each sample over a 365-day period.
Synthetic peptides derived from casein: In another experiment, 6 week old female NOD mice received one injection per week of 100 μg of Synthetic peptides derived from casein for a total of 5 treatments. Control mice received no treatment. Results were expressed as the number of healthy mice in the various treated groups.

[4] = system: Non-Obese Diabetic (NOD) mice; assay: Intraperitoneal Glucose Tolerance Test (IPGTT) in NOD mice; format: in vivo; conditions: individual healthy NOD mice, 25 weeks after peptides; for IPGT TEST 60 min. post load plasma glucose: 60 min after i.p. glucose 1 g/kg; for IPGT TEST 0 min. (pre-load) plasma glucose: before glucose load
Description: Intraperitoneal Glucose Tolerance Test (IPGTT): The glucose tolerance test is the definitive method for investigating glucose metabolism and diabetic tendencies in mammals. Twenty five (25) weeks after receiving Synthetic peptides derived from casein, response to a glucose load was assessed with an intraperitoneal glucose tolerance test. Glucose injection consisted of 1 g/kg body weight. Glycemic values were determined from blood drawn prior to test (0 minutes) and 60 minutes after loading.

[5] = system: irradiated, bone marrow transplanted mice; assay: Leukocyte and platelet reconstitution in bone marrow transplant recipient mice; format: in vivo; conditions: for white blood cell reconstitution (in words): F1 mice, 750 cGy, 1 mg i.v., days 5 and 7 post-reconstitution
Description: Leukocyte and platelet reconstitution in bone marrow transplant recipient Mice: BALB/c mice were sub-lethally irradiated at a source to skin distance of 70 cm, dosage of 50 cGy per minute, for a total of 600 cGy. The irradiated mice were […] casein, synthetic peptides derived from casein (13-26 amino acids, see Table 3 above), or human serum albumin (controls), following a double-blinded protocol. Leukocyte reconstitution was determined according to cell count in peripheral blood collected at indicated intervals from 6 to 12 days post treatment. Platelet reconstitution was determined by cell count in blood collected from the retro orbital plexus, into EDTA-containing vials, at indicated intervals from day 6 to day 15 post treatment. […]
In a third series of experiments, the mice were irradiated (800 cGy), reconstituted and injected intraperitoneally with 1.0 mg synthetic peptides derived from casein (peptides 3a and 4P, representing the first 6 and 12 amino acids of the N terminus of αS1 casein, respectively—see Table 3 above) daily, on days 4, 5, 6 and 7 post-transplantation. Platelet reconstitution was assayed at 10 and 12 days post-transplantation.
In a fourth series of experiments, F1 mice were irradiated (750 cGy), reconstituted with syngeneic bone marrow, and injected intravenously 24 hours later with 1 mg per mouse of synthetic peptides derived from casein representing amino acids 1-22 of the N terminus of αS1 casein. In addition, 2 (two) groups of mice were treated each with a natural fraction of αS1 casein position 1-23, and a fraction of peptides derived from natural κ-casein, representing amino acid coordinates 106-169 of κ-casein (SEQ ID NO: 27). WBC counts were conducted on days 5, 7, 10 and 12 post-transplantation.

[6] = 800 cGy, 1.0 mg i.p. daily, days 4-7

RPKHP [3P, synthetic peptide, N-terminal 5 amino acids of αS1 casein]
HIV-1 infection level, HIV-P24 antigen ([1]; 10 μg per ml): 0.26 ng P^24 Ag per ml | Cell counts ([1]; 10 μg per ml): 1.17×10^6 | HIV-1 infection level, HIV-P24 antigen ([1]; 25 μg per ml): 0.18 ng P^24 Ag per ml | Cell counts ([1]; 25 μg per ml): 1.26×10^6 | HDL [2]: 42.5 mg/dL | LDL [2]: 247 mg/dL | Total cholesterol (TC) [2]: 308 mg/dL

RPKHPIKH [Y, synthetic peptide, N-terminal 8 amino acids of αS1 casein]
Healthy/Total (sugar not detected in urine) [3]: 1/5 | Urine Sugar [3]: Negative | IPGT TEST 60 min. post load plasma glucose [4]: 138 mg/dL | IPGT TEST 0 min. (pre-load) plasma glucose [4]: 121 mg/dL

RPKHPIKHQG [1a, synthetic peptide, N-terminal 10 amino acids of αS1 casein]
Healthy/Total (sugar not detected in urine) [3]: 1/5 | Urine Sugar [3]: Negative | IPGT TEST 60 min. post load plasma glucose [4]: 106 mg/dL | IPGT TEST 0 min. (pre-load) plasma glucose [4]: 88 mg/dL

RPKHPIKHQGL [2a, synthetic peptide, N-terminal 11 amino acids of αS1 casein]
prevention of glucosuria (in words) [3]: highly effective | Healthy/Total (sugar not detected in urine) [3]: 4/5 | Urine Sugar [3]: Negative | HDL [2]: 41 mg/dL | LDL [2]: 221 mg/dL | Total cholesterol (TC) [2]: 279 mg/dL

RPKHPIKHQGLP [3a, synthetic peptide, N-terminal 12 amino acids of αS1 casein]
prevention of glucosuria (in words) [3]: highly effective | Healthy/Total (sugar not detected in urine) [3]: 3/5 | Urine Sugar [3]: Negative | increase in platelet counts over control, 10 days post transplantation [5, 6]: up to 35.5% | increase in platelet counts over control, 12 days post transplantation [5, 6]: up to 13.5% | platelet counts, 12 days post transplantation [5, 6]: 622000 mL⁻¹ | platelet counts, 10 days post transplantation ([5]; 800 cGy, 1.0 mg i.p. daily, days 4-7, control 169): 229000 mL⁻¹

RPKHPIKHQGLPQ [A, synthetic peptide, N-terminal 13 amino acids of αS1 casein]
Healthy/Total (sugar not detected in urine) [3]: 2/5 | Urine Sugar [3]: Negative

RPKHPIKHQGLPQE [B, synthetic peptide, N-terminal 14 amino acids of αS1 casein]
Healthy/Total (sugar not detected in urine) [3]: 2/5 | Urine Sugar [3]: Negative | IPGT TEST 0 min. (pre-load) plasma glucose [4]: 130 mg/dL

RPKHPIKHQGLPQEV [C, synthetic peptide, N-terminal 15 amino acids of αS1 casein]
peripheral white blood cell counts, day 10 ([5]; BALB/c, 600 cGy, 1 mg per mouse intraperitoneal, control 1.67): 1.72 ×10^6 cells per ml | peripheral white blood cell counts, day 12 ([5]; BALB/c, 600 cGy, 1 mg per mouse intraperitoneal, control 4.64): 6.54 ×10^6 cells per ml

RPKHPIKHQGLPQEVL [D, synthetic peptide, N-terminal 16 amino acids of αS1 casein]
Healthy/Total (sugar not detected in urine) [3]: 2/5 | Urine Sugar [3]: Negative

RPKHPIKHQGLPQEVLNENLL [synthetic peptide, N-terminal 21 amino acids of αS1 casein]
Healthy/Total (sugar not detected in urine) [3]: 2/5 | Urine Sugar [3]: Negative | IPGT TEST 60 min. post load plasma glucose [4]: 138 mg/dL

RPKHPIKHQGLPQEVLNENLLRF [synthetic peptide, N-terminal 23 amino acids of αS1 casein]
Healthy/Total (sugar not detected in urine) [3]: 2/5 | Urine Sugar [3]: Negative | IPGT TEST 60 min. post load plasma glucose [4]: 143 mg/dL

α-S1 1-23: gel filtration fraction of natural casein peptides: amino acid positions 1-23 of the N-terminus of αS1 casein (SEQ ID NO: 22) (RPKHPIKHQGLPQEVLNENLLRF)
white blood cell reconstitution (in words) [5]: dramatic enhancement

κ-casein (106-169): gel filtration fraction comprising a peptide representing amino acid positions 106-169 of κ-casein
white blood cell reconstitution (in words) [5]: dramatic enhancement

From patent publication US7666996B2, “Casein derived peptides and uses thereof” (priority 2000, dated 2010)
